Legend:
Test in all cases: cells
Parameters in all cases: species or system NCI-60 human tumour cell lines; NCI-60 one-dose screen at 10 uM, percent growth inhibition versus untreated control cells
BT-549 = details: Homo sapiens, BT-549; growth inhibition, one dose; read-out: Growth% inhibition / 5e
Description: (§1) The antiproliferative activity of the target compounds 5a–h was screened against a panel of 60 cancer cell lines according to NCI-guidelines at concentration of 10 μM. The results for each compound (Table 1) were recorded as the percent of growth inhibition of treated cells compared to untreated control cells. […] In addition, 5b recorded significant activity against leukemia cancer cell lines K-562 and MOLT-4, Non-small cell lung cancer cell lines NCI-H322M and NCI-H460, Colon cancer cell lines COLO 205, HCT-15 and HCT-116, CNS cancer cell lines SF-295 and SF-539, Melanoma cancer cell lines LOX IMVI and UACC-62, Ovarian cancer cell lines NCI/ADR-RES, OVCAR-3, and OVCAR-4, Renal cancer cell lines CAKI-1, ACHN, and UO-31, and Breast cancer MCF7 cell line with growth inhibition percentage between 80 to 95. […] The methodology of the NCI anticancer screening has been described in detail elsewhere (https://dtp.cancer.gov/).[52]

PC-3 = details: Homo sapiens, PC-3; growth inhibition, one dose; read-out: Growth% inhibition / 5e
Description: as §1

HCC-2998 = details: Homo sapiens, HCC 2998; growth inhibition, one dose; read-out: Growth% inhibition / 5e
Description: as §1

HCT-15 = details: Homo sapiens, HCT-15; growth inhibition, one dose; read-out: Growth% inhibition / 5e
Description: as §1

UACC-62 = details: Homo sapiens, UACC-62; growth inhibition, one dose; read-out: Growth% inhibition / 5e
Description: as §1

MCF7 = details: Homo sapiens, MCF7; growth inhibition, one dose; read-out: Growth% inhibition / 5e
Description: as §1

A549/ATCC = details: Homo sapiens, A549; growth inhibition, one dose; read-out: Growth% inhibition / 5e
Description: as §1

HOP-92 = details: Homo sapiens, HOP-92; growth inhibition, one dose; read-out: Growth% inhibition / 5e
Description: as §1

CAKI-1 = details: Homo sapiens, CAKI-1; growth inhibition, one dose; read-out: Growth% inhibition / 5e
Description: as §1

MOLT-4 = details: Homo sapiens, MOLT-4; growth inhibition, one dose; read-out: Growth% inhibition / 5e
Description: as §1

NCI-H322M = details: Homo sapiens, NCI-H322M; growth inhibition, one dose; read-out: Growth% inhibition / 5e
Description: as §1

SNB-75 = details: Homo sapiens, SNB-75; growth inhibition, one dose; read-out: Growth% inhibition / 5e
Description: as §1

KM12 = details: Homo sapiens, KM12; growth inhibition, one dose; read-out: Growth% inhibition / 5e
Description: as §1

ACHN = details: Homo sapiens, ACHN; growth inhibition, one dose; read-out: Growth% inhibition / 5e
Description: as §1

786-0 = details: Homo sapiens, 786-0; growth inhibition, one dose; read-out: Growth% inhibition / 5e
Description: as §1

U251 = details: Homo sapiens, U-251; growth inhibition, one dose; read-out: Growth% inhibition / 5e
Description: as §1

SN12C = details: Homo sapiens, SN12C; growth inhibition, one dose; read-out: Growth% inhibition / 5e
Description: as §1

OVCAR-4 = details: Homo sapiens, OVCAR-4; growth inhibition, one dose; read-out: Growth% inhibition / 5e
Description: as §1

## CCN(CC)c1ccc(/C=N/NC(=O)/C=C/C=C/c2ccc3c(c2)OCO3)c(O)c1 [5e, (2E,4E)-5-(Benzo[d][1,3]dioxol-5-yl)-N′-((E)-4-(diethylamino)-2-hydroxybenzylidene)penta-2,4-dienehydrazide]
BT-549
  inhibition at 10 µM: 48.2%
PC-3
  inhibition at 10 µM: 59.1%
HCC-2998
  inhibition at 10 µM: 46%
HCT-15
  inhibition at 10 µM: 78.7%
UACC-62
  inhibition at 10 µM: 70.9%
MCF7
  inhibition at 10 µM: 80.5%
A549/ATCC
  inhibition at 10 µM: 46.7%
HOP-92
  inhibition at 10 µM: 51.6%
CAKI-1
  inhibition at 10 µM: 70.7%
MOLT-4
  inhibition at 10 µM: 81.7%
NCI-H322M
  inhibition at 10 µM: 66.8%
SNB-75
  inhibition at 10 µM: 41.2%
KM12
  inhibition at 10 µM: 69.8%
ACHN
  inhibition at 10 µM: 74.4%
786-0
  inhibition at 10 µM: 52.8%
U251
  inhibition at 10 µM: 56.8%
SN12C
  inhibition at 10 µM: 45.9%
OVCAR-4
  inhibition at 10 µM: 84.7%
